The values that follow come from article PMC8397418, “Novel Bis-Thiazole Derivatives: Synthesis and Potential Cytotoxic Activity Through Apoptosis With Molecular Docking Approaches” (Frontiers in Chemistry, 2021).

Some results are limits rather than exact numbers.

Assay [1] relates to MEF normal mouse embryonic fibroblast. Put plainly: MTT cytotoxicity assay, MEF. Format: cell-based. To be noted: n = 3. (Tetrazolium assays rely on reduction of a dye to a coloured formazan, in cell work by metabolically active cells.)
The test system of assay [2] is KF-28 cells. Put plainly: Quantitative RT-PCR of apoptosis-related genes. To be noted: 48 h. The class given is cell-based, human. The procedure:
Next, we investigated the pathway through which apoptosis is induced by compounds 5a, 5b, and 5f in KF-28 cells. For that purpose, after treating cells with each compound, RNA was extracted, cDNA was synthesized, and RT-PCR was performed to quantify the mRNA expression of pro-apoptotic genes (p53, bax, puma), caspases 3, 8 9, anti-apoptotic gene (Bcl-2), and Pim-1 kinase genes in KF-28 cells.
The cells were grown in 10 cm^2 culture dishes to a monolayer with a confluence of 90% in triplicates. After different treatments, the cells were washed twice with PBS and then pelleted by centrifugation for 5 min at 1800 rpm at 4°C. The cells were lysed by Trizol reagent (Invitrogen), and then total RNA was purified with the phenol/chloroform extraction method. Concentration and purity of RNA samples were measured using NanoDrop. The RNA purity was assessed as OD260/OD230 (≥1.5) using NanoDrop. gDNA was eliminated by DNase. The RNA from three biological samples was then pooled for mRNA analysis, cDNA was synthesized using the iScript kit (Bio-Rad, United States) according to the manufacturer’s recommendation, and RT-PCRs consisted of 8.34 µL Fluocycle® II SYBR® (Euroclone, Milan, Italy), 0.5 µL of both 10 µM forward and reverse primers, 1 µL cDNA, and 6.34 µL of H2O. All reactions were performed for 35 cycles using the following temperature profile: 95°C for 5 min (initial denaturation), 95°C for […] (denaturation), 55°C for […] (annealing), and 72°C for […] (extension) ([Nafie et al., 2020a]; [Sarhan et al., 2020]). Then, the Ct values were collected, with the folds of changes between all the samples.

Assay [3] deals with Hela cervical cancer cells. Put plainly: MTT cytotoxicity assay, Hela. The class given is cell-based. To be noted: Homo sapiens, MTT, 72 h, n = 3, read-out: IC50 Hela (Cervical). The procedure:
(§1) The synthesized derivatives were screened for their cytotoxic activities against five cancer cell lines (two breast cancer cell lines: MCF-7 and MDA-MB-231, two ovarian cancer cell lines: A2780 and KF-28, and one cervical cancer cell line: Hela). This study was performed using serial concentrations of 25, 50, 100, 150, and 200 µM of each compound using the MTT assay. Percentages of cell viability of the tested compounds with serial concentration against the tested panel of cell lines are depicted in Figure 1, in which there is a decrease in the cell viability with increasing concentrations in a dose–response pattern. […] Therefore, compounds 5a, 5b, and 5f were thought worthwhile to further investigate their effects as either cytotoxic or antiproliferative effects and whether any of them is an inducer of apoptotic cell death in the representative cancer cell lines KF-28 and A2780.
(§2) The human ovarian serous carcinoma cell line KF-28 was kindly provided by Prof. Yoshihiro Kikuchi (Department of Obstetrics and Gynecology, National Defense Medical College, Saitama, Japan), and A2780 cell line was purchased from the ECACC (ECACC 93112519). The cells were maintained in RPMI-1640 (Sigma-Aldrich, United States). The cervical cancer cell line, Hela cells, breast cancer cell line, MCF-7, and MDA-MB-231 were purchased from the ATCC and cultured in DMEM. Both types of media were supplemented with 2 mM L-glutamine (Lonza, Belgium), 10% FBS (Sigma, St. Louis, MO, United States), and 1% penicillin/streptomycin (Lonza, Belgium). All cells were incubated at 37°C in 5% CO2 atmosphere (NuAire). All cancer cell lines were cultured according to the routine tissue culture work as discussed by the Freshney group ([Freshney, 2010]). The cells were plated at a density of 5,000 cells in triplicates in a 96-well plate. On the next day, the cells were treated with the indicated compound(s) at the indicated concentrations in a final volume of 100 μL media. Cell viability was assessed after 72 h using MTT solution (Promega) ([Mosmann, 1983]). 20 μL of the reagent was added to each well, the plate was incubated for 3 h, […] was subsequently measured (570 nm) using a plate reader, and then the IC50 values were calculated using Excel ([Tantawy et al., 2020]).

In assay [4] the test system is KF-28 ovarian cancer cells. As to the kind of experiment: MTT cytotoxicity assay, KF-28. The conditions noted are these: Homo sapiens; MTT, 72 h, n = 3; read-out: IC50 KF-28 (Ovarian). The class given is cell-based, human. The procedure:
as §1, §2

The subject of assay [5] is A2780 ovarian cancer cells. Put plainly: MTT cytotoxicity assay, A2780. Format: cell-based, human. To be noted: Homo sapiens, A2780; MTT, 72 h, n = 3; read-out: IC50 A2780 (Ovarian). The procedure: as §1, §2
Assay [6] relates to KF-28 cells. As to the kind of experiment: DNA content and cell cycle analysis (PI, flow cytometry). Format: cell-based, human. To be noted: 200 µM, 48 h; for Cell cycle phase G1 population: DMSO control 72%. On the procedure:
Studying the cell cycle phases by measuring DNA content is a crucial test that helps in evaluating the impact of a given drug(s) on dividing cells and may reflect the mechanism through which this drug(s) affects those cells. […] Compounds 5a, 5b, 5c, 5f, 5g, and 9 were added to similar numbers of cells at 200 µM for 48 h, and then, the different cell cycle phases were assessed by flow cytometric analysis.
The cells were seeded into six-well culture plates (3–5 × 10^5 cells/well) and incubated overnight at 37°C, under 5% CO2. The cells were then treated with indicated compounds for 48 h. Next, media supernatants and the cells were collected and washed with ice-cold PBS. Next, the cells were stained with PI (10 mg/ml) for 30 min and analyzed for DNA contents using flow cytometry analysis using an FL2 (λex/em 535/617 nm) signal detector (ACEA Novocyte™ flow cytometer, ACEA Biosciences, Inc., San Diego, CA, United States). For each sample, 12,000 events are acquired. Cell cycle distribution is calculated using a CytoFLex machine and analyzed by CytExpert software. Flow cytometric methodologies (annexin V/PI staining with cell cycle analyses) are carried out as previously described ([Nafie et al., 2020a]; [Nafie et al., 2020b]; [Gad et al., 2020]).
On the technique in general: In flow cytometry, cells or beads pass a laser one at a time.

For assay [7], the system named is MCF-7 breast cancer cells. As to the kind of experiment: MTT cytotoxicity assay, MCF-7. The conditions noted are these: Homo sapiens, MCF7; MTT, 72 h, n = 3; read-out: IC50 MCF-7 (Breast). The class given is cell-based, human. The procedure: as §1, §2

In turn, `Cc1[nH]c(=NN=C2CCC(=NN=c3[nH]c(C)c(N=Nc4ccccc4)s3)CC2)sc1N=Nc1ccccc1` [5a, 1,4-Bis((5-phenylazo-4-methylthiazol-2-ylidene)hydrazono)cyclohexane] came in with an IC50 in assay [1] of 7.08 µM. For the same compound, in assay [2], the “Bcl-2 expression, maximum decrease” value is “≈ 0.5 fold”; the “Pim-1 kinase expression, maximum decrease” value is “≈ 0.31 fold”; the “bax mRNA level, maximum increase” value was roughly 5.2 fold; the “caspase 3 mRNA level, maximum increase” value is reported as “≈ 6.2 fold”. In assay [2], the “caspase 9 mRNA level, maximum increase” value is roughly 5.6 fold; the “p53 mRNA relative expression” value is reported as “≈ 4.07 fold”; the “puma mRNA level, maximum increase” value was “≈ 5.08 fold”. Moreover, the IC50 in assay [3] is greater than 200 µM. Besides, the IC50 in assay [4] was less than 25 µM. Besides, the half-inhibitory concentration (IC50) in assay [5] was determined as 77.9 µM. Also, in assay [6], the “Cell cycle phase S population” value is 11.4% and the “Cell cycle phase G1 population” value came out at 75.9%. In addition, the half-maximal inhibitory concentration (IC50) in assay [7] is greater than 200 µM.
With `Cc1ccc(N=Nc2sc(=NN=C3CCC(=NN=c4[nH]c(C)c(N=Nc5ccc(C)cc5)s4)CC3)[nH]c2C)cc1` [5b, 1,4-Bis((5-(4-tolylazo)-4-methylthiazol-2-ylidene)hydrazono)cyclohexane], the IC50 in assay [1] was 2.34 µM; in assay [3] it was greater than 200 µM; in assay [4] it was less than 25 µM; in assay [5], 94.4 µM; in assay [7], greater than 200 µM. Moreover, the “bax mRNA level, maximum increase” value in assay [2] was roughly 3.33 fold. Besides, in assay [2], the “p53 mRNA relative expression” value is given as “≈ 3.41 fold”. For the same compound, the “puma mRNA level, maximum increase” value in assay [2] is listed as “≈ 4.14 fold”. Further, in assay [6], the “Cell cycle phase S population” value was determined as 4.5%. In assay [6], the “Cell cycle phase G1 population” value is 85.6%.
In the case of `Cc1[nH]c(=NN=C2CCC(=NN=c3[nH]c(C)c(N=Nc4ccccc4Cl)s3)CC2)sc1N=Nc1ccccc1Cl` [5f, 1,4-Bis((5-(2-chlorophenylazo)-4-methylthiazol-2-ylidene)hydrazono)cyclohexane], the IC50 in assay [1] was greater than 200 µM. Further, in assay [2], the “Bcl-2 expression, maximum decrease” value is on record as “≈ 0.76 fold”; the “Pim-1 kinase expression, maximum decrease” value was “≈ 0.86 fold”; the “bax mRNA level, maximum increase” value is reported as roughly 2.33 fold; the “caspase 3 mRNA level, maximum increase” value is “≈ 6.9 fold”. Further, in assay [2], the “caspase 8 mRNA level, maximum increase” value was roughly 5.5 fold; the “caspase 9 mRNA level, maximum increase” value is recorded as roughly 6.0 fold; the “p53 mRNA relative expression” value is reported as “≈ 3.81 fold”; the “puma mRNA level, maximum increase” value is on record as “≈ 3.14 fold”. Moreover, in assay [3], the IC50 was greater than 200 µM. In addition, the half-maximal inhibitory concentration (IC50) in assay [4] was less than 25 µM. The half-maximal inhibitory concentration (IC50) in assay [5] was less than 25 µM. The “Cell cycle phase G1 population” value in assay [6] worked out at 76.9%. In addition, the IC50 in assay [7] is greater than 200 µM.

In general, IC50 refers to the concentration at which inhibition is half-maximal.
